Laboratory results: PMC7156458, “Synthetic biology based construction of biological activity-related library of fungal decalin-containing diterpenoid pyrones” (Nature Communications, 2020)

Biological target: Aβ42 (Homo sapiens, UniProt P05067)
Test: Th-T (thioflavin-T) assay of Aβ42 aggregation
Format: biochemical
Details: for Th-T assay plate reading, mean of three wells (Supplementary Fig. 47): source data, Ab alone and No Ab as controls

Chain of Aβ42 (P05067 672-713): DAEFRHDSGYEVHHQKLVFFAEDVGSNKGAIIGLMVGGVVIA

C=C1CC[C@H]2[C@]3(C)C[C@H](C=C(C)C)O[C@H]3CC[C@]2(C)[C@@H]1Cc1c(OC)oc(C)c(C)c1=O [Compound 24]
Th-T fluorescence, mean of three wells (Aβ42 aggregation time course, reading M117): 3.93 | Th-T fluorescence, mean of three wells (Aβ42 aggregation time course, reading M118): 3.9367 | Th-T fluorescence, mean of three wells (Aβ42 aggregation time course, reading M119): 3.915 | Th-T fluorescence, mean of three wells (Aβ42 aggregation time course, reading M120): 3.905 | Th-T fluorescence, mean of three wells (Aβ42 aggregation time course, reading M121): 3.903 | Th-T fluorescence, mean of three wells (Aβ42 aggregation time course, reading M122): 3.899 | Th-T fluorescence, mean of three wells (Aβ42 aggregation time course, reading M123): 3.9273 | Th-T fluorescence, mean of three wells (Aβ42 aggregation time course, reading M124): 3.899 | Th-T fluorescence, mean of three wells (Aβ42 aggregation time course, reading M125): 3.909 | Th-T fluorescence, mean of three wells (Aβ42 aggregation time course, reading M126): 3.889 | Th-T fluorescence, mean of three wells (Aβ42 aggregation time course, reading M127): 3.86 | Th-T fluorescence, mean of three wells (Aβ42 aggregation time course, reading M128): 3.875 | Th-T fluorescence, mean of three wells (Aβ42 aggregation time course, reading M129): 3.876 | Th-T fluorescence, mean of three wells (Aβ42 aggregation time course, reading M130): 3.844 | Th-T fluorescence, mean of three wells (Aβ42 aggregation time course, reading M131): 3.869 | Th-T fluorescence, mean of three wells (Aβ42 aggregation time course, reading M132): 3.865 | Th-T fluorescence, mean of three wells (Aβ42 aggregation time course, reading M133): 3.8524 | Th-T fluorescence, mean of three wells (Aβ42 aggregation time course, reading M134): 3.8749 | Th-T fluorescence, mean of three wells (Aβ42 aggregation time course, reading M135): 3.85 | Th-T fluorescence, mean of three wells (Aβ42 aggregation time course, reading M136): 3.855 | Th-T fluorescence, mean of three wells (Supplementary Fig. 47, reading M137): 3.87 | Th-T fluorescence, mean of three wells (Supplementary Fig. 47, reading M138): 3.855 | Th-T fluorescence, mean of three wells (Supplementary Fig. 47, reading M139): 3.871 | Th-T fluorescence, mean of three wells (Supplementary Fig. 47, reading M140): 3.832 | Th-T fluorescence, mean of three wells (Supplementary Fig. 47, reading M141): 3.853 | Th-T fluorescence, mean of three wells (Supplementary Fig. 47, reading M142): 3.823 | Th-T fluorescence, mean of three wells (Supplementary Fig. 47, reading M143): 3.843 | Th-T fluorescence, mean of three wells (Supplementary Fig. 47, reading M144): 3.8288 | Th-T fluorescence, mean of three wells (Supplementary Fig. 47, reading M145): 3.794 | Th-T fluorescence, mean of three wells (Supplementary Fig. 47 source data, measurement M37 of time course): 4.118 | Th-T fluorescence, mean of three wells (Supplementary Fig. 47 source data, measurement M38 of time course): 4.1 | Th-T fluorescence, mean of three wells (Supplementary Fig. 47 source data, measurement M39 of time course): 4.133 | Th-T fluorescence, mean of three wells (Supplementary Fig. 47 source data, measurement M40 of time course): 4.141 | Th-T fluorescence, mean of three wells (Supplementary Fig. 47 source data, measurement M41 of time course): 4.132 | Th-T fluorescence, mean of three wells (Supplementary Fig. 47 source data, measurement M42 of time course): 4.118 | Th-T fluorescence, mean of three wells (Supplementary Fig. 47 source data, measurement M43 of time course): 4.101 | Th-T fluorescence, mean of three wells (Supplementary Fig. 47 source data, measurement M44 of time course): 4.12 | Th-T fluorescence, mean of three wells (Supplementary Fig. 47 source data, measurement M45 of time course): 4.146 | Th-T fluorescence, mean of three wells (Supplementary Fig. 47 source data, measurement M46 of time course): 4.159 | Th-T fluorescence, mean of three wells (Supplementary Fig. 47 source data, measurement M47 of time course): 4.139 | Th-T fluorescence, mean of three wells (Supplementary Fig. 47 source data, measurement M48 of time course): 4.146 | Th-T fluorescence, mean of three wells (Supplementary Fig. 47 source data, measurement M49 of time course): 4.116 | Th-T fluorescence, mean of three wells (Supplementary Fig. 47 source data, measurement M50 of time course): 4.153 | Th-T fluorescence, mean of three wells (Supplementary Fig. 47 source data, measurement M51 of time course): 4.157 | Th-T fluorescence, mean of three wells (Supplementary Fig. 47 source data, measurement M52 of time course): 4.123 | Th-T fluorescence, mean of three wells (Supplementary Fig. 47 source data, measurement M53 of time course): 4.133 | Th-T fluorescence, mean of three wells (Supplementary Fig. 47 source data, measurement M54 of time course): 4.156 | Th-T fluorescence, mean of three wells (Supplementary Fig. 47 source data, measurement M55 of time course): 4.1334 | Th-T fluorescence, mean of three wells (Supplementary Fig. 47 source data, measurement M56 of time course): 4.113 | Th-T assay plate reading, mean of three wells (Supplementary Fig. 47) (measurement M1): 0.168 | Th-T assay plate reading, mean of three wells (Supplementary Fig. 47) (measurement M2): 0.1686 | Th-T assay plate reading, mean of three wells (Supplementary Fig. 47) (measurement M3): 0.1808 | Th-T assay plate reading, mean of three wells (Supplementary Fig. 47) (measurement M4): 0.1943 | Th-T assay plate reading, mean of three wells (Supplementary Fig. 47) (measurement M5): 0.213 | Th-T assay plate reading, mean of three wells (Supplementary Fig. 47) (measurement M6): 0.2405 | Th-T assay plate reading, mean of three wells (Supplementary Fig. 47) (measurement M7): 0.3234 | Th-T assay plate reading, mean of three wells (Supplementary Fig. 47) (measurement M8): 0.379 | Th-T assay plate reading, mean of three wells (Supplementary Fig. 47) (measurement M9): 0.4389 | Th-T assay plate reading, mean of three wells (Supplementary Fig. 47) (measurement M10): 0.7586 | Th-T assay plate reading, mean of three wells (Supplementary Fig. 47) (measurement M11): 1.544 | Th-T assay plate reading, mean of three wells (Supplementary Fig. 47) (measurement M12): 2.364 | Th-T assay plate reading, mean of three wells (Supplementary Fig. 47) (measurement M13): 2.959 | Th-T assay plate reading, mean of three wells (Supplementary Fig. 47) (measurement M14): 3.254 | Th-T assay plate reading, mean of three wells (Supplementary Fig. 47) (measurement M15): 3.396 | Th-T assay plate reading, mean of three wells (Supplementary Fig. 47) (measurement M16): 3.5133 | Th-T fluorescence, mean of three wells (reading M17, Supplementary Fig. 47 source data): 3.637 | Th-T fluorescence, mean of three wells (reading M18, Supplementary Fig. 47 source data): 3.688 | Th-T fluorescence, mean of three wells (reading M19, Supplementary Fig. 47 source data): 3.715 | Th-T fluorescence, mean of three wells (reading M20, Supplementary Fig. 47 source data): 3.759 | Th-T fluorescence, mean of three wells (reading M21, Supplementary Fig. 47 source data): 3.811 | Th-T fluorescence, mean of three wells (reading M22, Supplementary Fig. 47 source data): 3.836 | Th-T fluorescence, mean of three wells (reading M23, Supplementary Fig. 47 source data): 3.884 | Th-T fluorescence, mean of three wells (reading M24, Supplementary Fig. 47 source data): 3.963 | Th-T fluorescence, mean of three wells (reading M25, Supplementary Fig. 47 source data): 3.926 | Th-T fluorescence, mean of three wells (reading M26, Supplementary Fig. 47 source data): 3.978 | Th-T fluorescence, mean of three wells (reading M27, Supplementary Fig. 47 source data): 3.957 | Th-T fluorescence, mean of three wells (reading M28, Supplementary Fig. 47 source data): 4.012 | Th-T fluorescence, mean of three wells (reading M29, Supplementary Fig. 47 source data): 4.002 | Th-T fluorescence, mean of three wells (reading M30, Supplementary Fig. 47 source data): 4.039 | Th-T fluorescence, mean of three wells (reading M31, Supplementary Fig. 47 source data): 4.06 | Th-T fluorescence, mean of three wells (reading M32, Supplementary Fig. 47 source data): 4.053 | Th-T fluorescence, mean of three wells (reading M33, Supplementary Fig. 47 source data): 4.071 | Th-T fluorescence, mean of three wells (reading M34, Supplementary Fig. 47 source data): 4.107 | Th-T fluorescence, mean of three wells (reading M35, Supplementary Fig. 47 source data): 4.086 | Th-T fluorescence, mean of three wells (reading M36, Supplementary Fig. 47 source data): 4.108 | Th-T fluorescence, mean of three wells (time course, reading M57): 4.13 | Th-T fluorescence, mean of three wells (time course, reading M58): 4.119 | Th-T fluorescence, mean of three wells (time course, reading M59): 4.1173 | Th-T fluorescence, mean of three wells (time course, reading M60): 4.127 | Th-T fluorescence, mean of three wells (time course, reading M61): 4.118 | Th-T fluorescence, mean of three wells (time course, reading M62): 4.092 | Th-T fluorescence, mean of three wells (time course, reading M63): 4.112 | Th-T fluorescence, mean of three wells (time course, reading M64): 4.119 | Th-T fluorescence, mean of three wells (time course, reading M65): 4.128 | Th-T fluorescence, mean of three wells (time course, reading M66): 4.121 | Th-T fluorescence, mean of three wells (time course, reading M67): 4.11 | Th-T fluorescence, mean of three wells (time-course reading M97, Supplementary Fig. 47 source data): 3.985 | Th-T fluorescence, mean of three wells (time-course reading M98, Supplementary Fig. 47 source data): 4.028 | Th-T fluorescence, mean of three wells (time-course reading M99, Supplementary Fig. 47 source data): 3.988 | Th-T fluorescence, mean of three wells (time-course reading M100, Supplementary Fig. 47 source data): 4.004 | Th-T fluorescence, mean of three wells (time-course reading M101, Supplementary Fig. 47 source data): 3.9991 | Th-T fluorescence, mean of three wells (time-course reading M102, Supplementary Fig. 47 source data): 3.997 | Th-T fluorescence, mean of three wells (time-course reading M103, Supplementary Fig. 47 source data): 3.988 | Th-T fluorescence, mean of three wells (time-course reading M104, Supplementary Fig. 47 source data): 3.979 | Th-T fluorescence, mean of three wells (time-course reading M105, Supplementary Fig. 47 source data): 4.002 | Th-T fluorescence, mean of three wells (time-course reading M106, Supplementary Fig. 47 source data): 3.966 | Th-T fluorescence, mean of three wells (time-course reading M107, Supplementary Fig. 47 source data): 3.935 | Th-T fluorescence, mean of three wells (time-course reading M108, Supplementary Fig. 47 source data): 3.958 | Th-T fluorescence, mean of three wells (time-course reading M109, Supplementary Fig. 47 source data): 3.936 | Th-T fluorescence, mean of three wells (time-course reading M110, Supplementary Fig. 47 source data): 3.951 | Th-T fluorescence, mean of three wells (time-course reading M111, Supplementary Fig. 47 source data): 3.932 | Th-T fluorescence, mean of three wells (time-course reading M112, Supplementary Fig. 47 source data): 3.941 | Th-T fluorescence, mean of three wells (time-course reading M113, Supplementary Fig. 47 source data): 3.942 | Th-T fluorescence, mean of three wells (time-course reading M114, Supplementary Fig. 47 source data): 3.927 | Th-T fluorescence, mean of three wells (time-course reading M115, Supplementary Fig. 47 source data): 3.938 | Th-T fluorescence, mean of three wells (time-course reading M116, Supplementary Fig. 47 source data): 3.922
